# Numbers after ± are expanded uncertainties.
# Assay: mn = molality of the nth substance listed, in mol/kg
# Details: 101.3 kPa, Liquid; for speed of sound: Single path-length method; for mass density: Vibrating tube method
smiles,measurement,setting,value
CCCCCCCn1cc[n+](C)c1.[Br-] [1-heptyl-3-methylimidazolium bromide] + O,speed of sound,"288.15 K, m1 = 0.0096",1468.2 ± 0.45 m/s
same,speed of sound,"288.15 K, m1 = 0.0113",1468.5 ± 0.45 m/s
same,speed of sound,"288.15 K, m1 = 0.0151",1469.1 ± 0.45 m/s
same,speed of sound,"288.15 K, m1 = 0.0226",1470.4 ± 0.45 m/s
same,speed of sound,"288.15 K, m1 = 0.0306",1471.8 ± 0.46 m/s
same,speed of sound,"288.15 K, m1 = 0.0384",1472.9 ± 0.46 m/s
same,speed of sound,"288.15 K, m1 = 0.0571",1476.1 ± 0.46 m/s
same,speed of sound,"288.15 K, m1 = 0.0778",1479.3 ± 0.47 m/s
same,speed of sound,"288.15 K, m1 = 0.097",1482.3 ± 0.47 m/s
same,speed of sound,"288.15 K, m1 = 0.1158",1485.2 ± 0.47 m/s
same,speed of sound,"288.15 K, m1 = 0.1383",1488.7 ± 0.48 m/s
same,speed of sound,"288.15 K, m1 = 0.1566",1491.5 ± 0.48 m/s
same,speed of sound,"288.15 K, m1 = 0.174",1494 ± 0.49 m/s
same,mass density,"288.15 K, m1 = 0.0096",999.568 ± 0.041 kg/m3
same,mass density,"288.15 K, m1 = 0.0113",999.656 ± 0.041 kg/m3
same,mass density,"288.15 K, m1 = 0.0151",999.839 ± 0.041 kg/m3
same,mass density,"288.15 K, m1 = 0.0226",1000.2 ± 0.041 kg/m3
same,mass density,"288.15 K, m1 = 0.0306",1000.59 ± 0.041 kg/m3
same,mass density,"288.15 K, m1 = 0.0384",1000.96 ± 0.042 kg/m3
same,mass density,"288.15 K, m1 = 0.0571",1001.85 ± 0.043 kg/m3
same,mass density,"288.15 K, m1 = 0.0778",1002.84 ± 0.044 kg/m3
same,mass density,"288.15 K, m1 = 0.097",1003.74 ± 0.045 kg/m3
same,mass density,"288.15 K, m1 = 0.1158",1004.62 ± 0.046 kg/m3
same,mass density,"288.15 K, m1 = 0.1383",1005.67 ± 0.048 kg/m3
same,mass density,"288.15 K, m1 = 0.1566",1006.51 ± 0.049 kg/m3
same,mass density,"288.15 K, m1 = 0.174",1007.32 ± 0.05 kg/m3
same,speed of sound,"293.15 K, m1 = 0.0096",1484.2 ± 0.46 m/s
same,speed of sound,"293.15 K, m1 = 0.0113",1484.4 ± 0.45 m/s
same,speed of sound,"293.15 K, m1 = 0.0151",1485 ± 0.45 m/s
same,speed of sound,"293.15 K, m1 = 0.0226",1486.1 ± 0.45 m/s
same,speed of sound,"293.15 K, m1 = 0.0306",1487.3 ± 0.45 m/s
same,speed of sound,"293.15 K, m1 = 0.0384",1488.5 ± 0.46 m/s
same,speed of sound,"293.15 K, m1 = 0.0571",1491.2 ± 0.46 m/s
same,speed of sound,"293.15 K, m1 = 0.0778",1494.3 ± 0.47 m/s
same,speed of sound,"293.15 K, m1 = 0.097",1497 ± 0.47 m/s
same,speed of sound,"293.15 K, m1 = 0.1158",1499.7 ± 0.47 m/s
same,speed of sound,"293.15 K, m1 = 0.1383",1502.8 ± 0.48 m/s
same,speed of sound,"293.15 K, m1 = 0.1566",1505.3 ± 0.48 m/s
same,speed of sound,"293.15 K, m1 = 0.174",1507.6 ± 0.49 m/s
same,mass density,"293.15 K, m1 = 0.0096",998.662 ± 0.045 kg/m3
same,mass density,"293.15 K, m1 = 0.0113",998.746 ± 0.041 kg/m3
same,mass density,"293.15 K, m1 = 0.0151",998.926 ± 0.041 kg/m3
same,mass density,"293.15 K, m1 = 0.0226",999.279 ± 0.041 kg/m3
same,mass density,"293.15 K, m1 = 0.0306",999.656 ± 0.041 kg/m3
same,mass density,"293.15 K, m1 = 0.0384",1000.03 ± 0.041 kg/m3
same,mass density,"293.15 K, m1 = 0.0571",1000.9 ± 0.042 kg/m3
same,mass density,"293.15 K, m1 = 0.0778",1001.86 ± 0.044 kg/m3
same,mass density,"293.15 K, m1 = 0.097",1002.74 ± 0.045 kg/m3
same,mass density,"293.15 K, m1 = 0.1158",1003.6 ± 0.046 kg/m3
same,mass density,"293.15 K, m1 = 0.1383",1004.63 ± 0.047 kg/m3
same,mass density,"293.15 K, m1 = 0.1566",1005.45 ± 0.048 kg/m3
same,mass density,"293.15 K, m1 = 0.174",1006.24 ± 0.049 kg/m3
same,speed of sound,"298.15 K, m1 = 0.0096",1498.3 ± 0.46 m/s
same,speed of sound,"298.15 K, m1 = 0.0113",1498.5 ± 0.45 m/s
same,speed of sound,"298.15 K, m1 = 0.0151",1499 ± 0.45 m/s
same,speed of sound,"298.15 K, m1 = 0.0226",1500.1 ± 0.45 m/s
same,speed of sound,"298.15 K, m1 = 0.0306",1501.2 ± 0.45 m/s
same,speed of sound,"298.15 K, m1 = 0.0384",1502.2 ± 0.46 m/s
same,speed of sound,"298.15 K, m1 = 0.0571",1504.7 ± 0.46 m/s
same,speed of sound,"298.15 K, m1 = 0.0778",1507.5 ± 0.47 m/s
same,speed of sound,"298.15 K, m1 = 0.097",1509.9 ± 0.47 m/s
same,speed of sound,"298.15 K, m1 = 0.1158",1512.3 ± 0.47 m/s
same,speed of sound,"298.15 K, m1 = 0.1383",1515.2 ± 0.48 m/s
same,speed of sound,"298.15 K, m1 = 0.1566",1517.4 ± 0.48 m/s
same,speed of sound,"298.15 K, m1 = 0.174",1519.5 ± 0.49 m/s
same,mass density,"298.15 K, m1 = 0.0096",997.491 ± 0.044 kg/m3
same,mass density,"298.15 K, m1 = 0.0113",997.574 ± 0.041 kg/m3
same,mass density,"298.15 K, m1 = 0.0151",997.75 ± 0.041 kg/m3
same,mass density,"298.15 K, m1 = 0.0226",998.097 ± 0.041 kg/m3
same,mass density,"298.15 K, m1 = 0.0306",998.464 ± 0.042 kg/m3
same,mass density,"298.15 K, m1 = 0.0384",998.827 ± 0.042 kg/m3
same,mass density,"298.15 K, m1 = 0.0571",999.682 ± 0.042 kg/m3
same,mass density,"298.15 K, m1 = 0.0778",1000.62 ± 0.043 kg/m3
same,mass density,"298.15 K, m1 = 0.097",1001.49 ± 0.044 kg/m3
same,mass density,"298.15 K, m1 = 0.1158",1002.33 ± 0.045 kg/m3
same,mass density,"298.15 K, m1 = 0.1383",1003.34 ± 0.047 kg/m3
same,mass density,"298.15 K, m1 = 0.1566",1004.14 ± 0.048 kg/m3
same,mass density,"298.15 K, m1 = 0.174",1004.91 ± 0.049 kg/m3
same,speed of sound,"303.15 K, m1 = 0.0096",1510.5 ± 0.46 m/s
same,speed of sound,"303.15 K, m1 = 0.0113",1510.8 ± 0.45 m/s
same,speed of sound,"303.15 K, m1 = 0.0151",1511.2 ± 0.45 m/s
same,speed of sound,"303.15 K, m1 = 0.0226",1512.2 ± 0.45 m/s
same,speed of sound,"303.15 K, m1 = 0.0306",1513.1 ± 0.45 m/s
same,speed of sound,"303.15 K, m1 = 0.0384",1514.1 ± 0.46 m/s
same,speed of sound,"303.15 K, m1 = 0.0571",1516.3 ± 0.46 m/s
same,speed of sound,"303.15 K, m1 = 0.0778",1518.9 ± 0.47 m/s
same,speed of sound,"303.15 K, m1 = 0.097",1521.1 ± 0.47 m/s
same,speed of sound,"303.15 K, m1 = 0.1158",1523.3 ± 0.47 m/s
same,speed of sound,"303.15 K, m1 = 0.1383",1525.8 ± 0.48 m/s
same,speed of sound,"303.15 K, m1 = 0.1566",1527.9 ± 0.48 m/s
same,speed of sound,"303.15 K, m1 = 0.174",1529.8 ± 0.49 m/s
same,mass density,"303.15 K, m1 = 0.0096",996.083 ± 0.044 kg/m3
same,mass density,"303.15 K, m1 = 0.0113",996.165 ± 0.042 kg/m3
same,mass density,"303.15 K, m1 = 0.0151",996.337 ± 0.042 kg/m3
same,mass density,"303.15 K, m1 = 0.0226",996.677 ± 0.042 kg/m3
same,mass density,"303.15 K, m1 = 0.0306",997.04 ± 0.042 kg/m3
same,mass density,"303.15 K, m1 = 0.0384",997.395 ± 0.042 kg/m3
same,mass density,"303.15 K, m1 = 0.0571",998.23 ± 0.043 kg/m3
same,mass density,"303.15 K, m1 = 0.0778",999.158 ± 0.043 kg/m3
same,mass density,"303.15 K, m1 = 0.097",1000.01 ± 0.044 kg/m3
same,mass density,"303.15 K, m1 = 0.1158",1000.83 ± 0.045 kg/m3
same,mass density,"303.15 K, m1 = 0.1383",1001.81 ± 0.046 kg/m3
same,mass density,"303.15 K, m1 = 0.1566",1002.6 ± 0.047 kg/m3
same,mass density,"303.15 K, m1 = 0.174",1003.35 ± 0.048 kg/m3
same,speed of sound,"308.15 K, m1 = 0.0096",1521.1 ± 0.45 m/s
same,speed of sound,"308.15 K, m1 = 0.0113",1521.3 ± 0.45 m/s
same,speed of sound,"308.15 K, m1 = 0.0151",1521.7 ± 0.45 m/s
same,speed of sound,"308.15 K, m1 = 0.0226",1522.6 ± 0.45 m/s
same,speed of sound,"308.15 K, m1 = 0.0306",1523.5 ± 0.45 m/s
same,speed of sound,"308.15 K, m1 = 0.0384",1524.4 ± 0.46 m/s
same,speed of sound,"308.15 K, m1 = 0.0571",1526.4 ± 0.46 m/s
same,speed of sound,"308.15 K, m1 = 0.0778",1528.6 ± 0.46 m/s
same,speed of sound,"308.15 K, m1 = 0.097",1530.7 ± 0.47 m/s
same,speed of sound,"308.15 K, m1 = 0.1158",1532.6 ± 0.47 m/s
same,speed of sound,"308.15 K, m1 = 0.1383",1534.9 ± 0.48 m/s
same,speed of sound,"308.15 K, m1 = 0.1566",1536.7 ± 0.48 m/s
same,speed of sound,"308.15 K, m1 = 0.174",1538.4 ± 0.49 m/s
same,mass density,"308.15 K, m1 = 0.0096",994.457 ± 0.042 kg/m3
same,mass density,"308.15 K, m1 = 0.0113",994.539 ± 0.042 kg/m3
same,mass density,"308.15 K, m1 = 0.0151",994.708 ± 0.042 kg/m3
same,mass density,"308.15 K, m1 = 0.0226",995.043 ± 0.042 kg/m3
same,mass density,"308.15 K, m1 = 0.0306",995.398 ± 0.043 kg/m3
same,mass density,"308.15 K, m1 = 0.0384",995.747 ± 0.043 kg/m3
same,mass density,"308.15 K, m1 = 0.0571",996.569 ± 0.043 kg/m3
same,mass density,"308.15 K, m1 = 0.0778",997.477 ± 0.044 kg/m3
same,mass density,"308.15 K, m1 = 0.097",998.309 ± 0.044 kg/m3
same,mass density,"308.15 K, m1 = 0.1158",999.119 ± 0.045 kg/m3
same,mass density,"308.15 K, m1 = 0.1383",1000.08 ± 0.045 kg/m3
same,mass density,"308.15 K, m1 = 0.1566",1000.86 ± 0.046 kg/m3
same,mass density,"308.15 K, m1 = 0.174",1001.6 ± 0.048 kg/m3

# Reference: the NIST ThermoML archive (doi:10.1016/j.fluid.2010.08.004)
